# Read-outs that look alike come from different tables or passages of the source.
# Molecular target: T1, β-glucuronidase Type VII-A derived from Escherichia coli (Escherichia coli, UniProt P05804)
# T1 construct: purchased Sigma-Aldrich Corporation
# Test: Inhibition of β-glucuronidase activity (PNPG substrate, absorbance at 400 nm)
# Type: biochemical
# Details: for Inhibition rate (%) Concentration 0.001%: 0.001 wt % in reaction solution
# Description: 100 μL of a 2 mM PNPG aqueous solution, 40 μL of a 0.5 M phosphate buffer (pH 6.8), 38 μL of ion exchanged water and 2 μL of a 10 or 1 wt % dipropylene glycol (DPG) solution of various compounds or plant extracts were mixed in a bottle γ-ray sterilized in advance, and subsequently 20 μL of a β-glucuronidase aqueous solution adjusted to 16 units/mL was added, in order to allow the enzyme to react in a thermostat bath at 37° C. for 2 hours. Further, in the case of some of compounds, in addition to the above steps, the same experiment was performed using a 0.1 wt % DPG solution as well. As a result, the concentrations of the test compounds and plant extracts in the reaction solution were adjusted to 0.1, 0.01 and 0.001 wt %, respectively. Further, a product prepared by adding DPG in place of the above-mentioned compounds and plant extracts was used as a control, and a product prepared by adding ion exchanged water in place of an enzyme solution was used as a blank for each sample and control, and the respective products were allowed to react for 2 hours in the same manner. It should be noted that the plant extract sample was used as a solvent extract.
# The above-mentioned reaction solution was diluted with a 0.2 M glycine buffer (pH 10.4) and measured for its absorbance at a wavelength of 400 nm. The relative activity inhibition rate of a β-glucuronidase was determined by using the obtained measurement value in accordance with the following equation. Absorbance change of control=Absorbance of control−Absorbance of blank for each control Absorbance change of sample=Absorbance of sample−Absorbance of blank for each sample Activity inhibition rate (%)=[(Absorbance change of control−Absorbance change of sample)/Absorbance change of control]×100
# [1] = 1.6 units/mL enzyme, 37° C., 2 hours, pH 6.8
# [2] = 0.01 wt % in reaction solution, 1.6 units/mL enzyme, 37° C., 2 hours, pH 6.8
# [3] = 0.1 wt % in reaction solution, 1.6 units/mL enzyme, 37° C., 2 hours, pH 6.8
# [4] = 0.01 wt % in reaction solution, 1.6 units/mL enzyme, 37° C., 2 hours, pH 6.8, read-out: Inhibition rate (%) Concentration 0.01%
# [5] = 0.1 wt % in reaction solution, 1.6 units/mL enzyme, 37° C., 2 hours, pH 6.8, read-out: Inhibition rate (%) Concentration 0.1%
# [6] = 2 h, pH 6.8, read-out: Inhibition rate (%) Concentration 0.01%
# [7] = 2 h, pH 6.8, read-out: Inhibition rate (%) Concentration 0.1%
# T1 sequence (P05804 whole entry): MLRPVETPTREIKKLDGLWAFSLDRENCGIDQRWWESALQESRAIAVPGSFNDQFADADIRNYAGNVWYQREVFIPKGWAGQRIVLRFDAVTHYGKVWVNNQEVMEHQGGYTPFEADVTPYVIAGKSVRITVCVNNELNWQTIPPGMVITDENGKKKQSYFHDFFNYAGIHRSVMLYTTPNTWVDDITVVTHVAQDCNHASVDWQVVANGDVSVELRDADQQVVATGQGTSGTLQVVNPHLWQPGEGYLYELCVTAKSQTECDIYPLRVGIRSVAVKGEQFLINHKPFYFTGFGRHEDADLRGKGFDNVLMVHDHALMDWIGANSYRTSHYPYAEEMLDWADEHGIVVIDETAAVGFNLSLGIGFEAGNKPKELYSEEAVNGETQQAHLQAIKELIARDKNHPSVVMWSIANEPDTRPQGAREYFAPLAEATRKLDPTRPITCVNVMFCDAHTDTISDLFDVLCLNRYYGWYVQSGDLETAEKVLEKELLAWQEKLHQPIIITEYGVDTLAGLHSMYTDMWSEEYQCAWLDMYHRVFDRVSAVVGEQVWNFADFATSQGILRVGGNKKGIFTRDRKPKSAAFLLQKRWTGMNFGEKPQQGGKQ
compound,measurement,setting,value
3-methyl-4(5)-cyclopentadecen-1-one,Inhibition rate (%) Concentration 0.001%,[1],92.4%
same,Inhibition rate (%) Concentration 0.01%,[2],99.1%
same,Inhibition rate (%) Concentration 0.1%,[3],98.8%
"CC1=CC[C@H](C(C)C)C=C1 (racemic) [α-Phellandrene, α-phellandrene]",Inhibition rate (%) Concentration 0.01%,[2],50.0%
same,Inhibition rate (%) Concentration 0.1%,[3],93.6%
"CCC=CCCC=CC=O [2,6-Nonadienal, 2,6-nonadienal]",inhibition at 0.01 wt %,[4],60.9%
same,inhibition at 0.1 wt %,[5],95.2%
"CCCCCCCC1CCCC1=O (stereo not drawn) [2-Heptylcyclopentanone, 2-heptylcyclopentanone]",inhibition at 0.01 wt %,[4],17.1%
same,inhibition at 0.1 wt %,[5],70.6%
"CCCCCCCCCC(C)C=O (stereo not drawn) [2-Methylundecanal, 2-methylundecanal]",inhibition at 0.01 wt %,[4],57%
same,inhibition at 0.1 wt %,[5],62.6%
"CCCCCC1=CCCC1=O [2-Pentylcyclopentenone, 2-pentylcyclopentenone]",Inhibition rate (%) Concentration 0.01%,[2],93.3%
same,Inhibition rate (%) Concentration 0.1%,[3],97.8%
"CC1CCCCCCCCCCCCC(=O)C1 (stereo not drawn) [3-Methylcyclopentadecanone, 3-methylcyclopentadecanone]",inhibition at 0.01 wt %,[4],57.3%
same,inhibition at 0.1 wt %,[5],86.4%
"O=CCCc1ccccc1 [3-Phenylpropanal, 3-phenylpropanal]",inhibition at 0.01 wt %,[4],23.3%
same,inhibition at 0.1 wt %,[5],81.7%
"O=C1CCC=CCCCCCCCCCCO1 [4(5)-Cyclopentadecenolide, 4(5)-cyclopentadecenolide]",Inhibition rate (%) Concentration 0.01%,[2],47.1%
same,Inhibition rate (%) Concentration 0.1%,[3],76.5%
"O=C1CCC=CCCCCCCCCCC1 [4-Cyclopentadecen-1-one, 4-cyclopentadecen-1-one]",Inhibition rate (%) Concentration 0.001%,[1],67.2%
same,inhibition at 0.01 wt %,[4],93.5%
same,inhibition at 0.1 wt %,[5],99.1%
"O=C1CCCC=CCCCCCCCCCC1 [5-Cyclohexadecen-1-one, 5-cyclohexadecen-1-one]",Inhibition rate (%) Concentration 0.001%,[1],65.8%
same,inhibition at 0.01 wt %,[4],93.9%
same,inhibition at 0.1 wt %,[5],98.4%
"O=C1CCCCC/C=C\CCCCCCCCO1 [7-Cyclohexadecenolide, 7-cyclohexadecenolide]",Inhibition rate (%) Concentration 0.001%,[1],88.1%
same,Inhibition rate (%) Concentration 0.01%,[2],98.5%
same,Inhibition rate (%) Concentration 0.1%,[3],99.6%
"O=C1CCCCCCCC=CCCCCCCC1 [9-Cycloheptadecen-1-one, 9-cycloheptadecen-1-one]",Inhibition rate (%) Concentration 0.001%,[1],95.8%
same,inhibition at 0.01 wt %,[4],96.3%
same,inhibition at 0.1 wt %,[5],100%
"O=C1CCCCCCCCOCCCCCCO1 [10-Oxa-16-hexadecanolide, 10-oxa-16-hexadecanolide]",Inhibition rate (%) Concentration 0.001%,[1],63.0%
same,inhibition at 0.01 wt %,[4],95.8%
same,inhibition at 0.1 wt %,[5],99.4%
"O=C1CCCCCCCCCOCCCCCO1 [11-Oxa-16-hexadecanolide, 11-oxa-16-hexadecanolide]",inhibition at 0.01 wt %,[4],26.8%
same,inhibition at 0.1 wt %,[5],62.8%
"COc1ccc(C=O)cc1 [Anisaldehyde, anisaldehyde]",inhibition at 0.01 wt %,[6],15.3%
same,inhibition at 0.1 wt %,[7],85.9%
"Cc1ccc2c(c1)OCC(=O)CO2 [Calone, 7-methyl-3,4-dihydro-(2H)-1,5-benzodioxepin-3-one]",inhibition at 0.01 wt %,[4],17.3%
same,inhibition at 0.1 wt %,[5],73.3%
"CC1=CCCC2(C)OC2CCC(C)=CCC1 (stereo not drawn) [Cedroxide, 4,8,12-trimethyl-13-oxabicyclo-[10.1.0]trideca-4,8-diene]",inhibition at 0.01 wt %,[4],40.1%
same,inhibition at 0.1 wt %,[5],82.6%
"OC/C=C/c1ccccc1 [Cinnamic alcohol, cinnamic alcohol]",inhibition at 0.01 wt %,[6],56.2%
same,inhibition at 0.1 wt %,[7],93.5%
"O=C/C=C/c1ccccc1 [Cinnamic aldehyde, cinnamic aldehyde]",Inhibition rate (%) Concentration 0.001%,[1],46.4%
same,inhibition at 0.01 wt %,[6],96.8%
same,inhibition at 0.1 wt %,[7],100%
"CC(=O)OCC=Cc1ccccc1 [Cinnamyl acetate, cinnamyl acetate]",inhibition at 0.01 wt %,[4],51.3%
same,inhibition at 0.1 wt %,[5],96.2%
"CC(C)=CCCC(C)=CC=O [Citral, citral]",inhibition at 0.01 wt %,[4],29.1%
same,inhibition at 0.1 wt %,[5],84.1%
"CC(C)=CCCC(C)CCO (stereo not drawn) [Citronellol, citronellol]",inhibition at 0.01 wt %,[4],47.4%
same,inhibition at 0.1 wt %,[5],76.2%
"CC(=O)OCCC(C)CCC=C(C)C (stereo not drawn) [Citronellyl acetate, citronellyl acetate]",inhibition at 0.01 wt %,[4],44.8%
same,inhibition at 0.1 wt %,[5],84.2%
"CC(C)=CCCC(C)CC#N (stereo not drawn) [Citronellyl nitrile, citronellyl nitrile]",Inhibition rate (%) Concentration 0.01%,[2],41.8%
same,Inhibition rate (%) Concentration 0.1%,[3],92.4%
"CC(C)c1ccc(C=O)cc1 [Cuminaldehyde, cuminaldehyde]",inhibition at 0.01 wt %,[4],37.8%
same,inhibition at 0.1 wt %,[5],97.1%
"CC(C=O)Cc1ccc(C(C)C)cc1 (stereo not drawn) [Cyclamen aldehyde, cyclamen aldehyde]",Inhibition rate (%) Concentration 0.001%,[1],27.4%
same,Inhibition rate (%) Concentration 0.01%,[2],82.7%
same,Inhibition rate (%) Concentration 0.1%,[3],87.5%
"O=C1CCCCCCCCCCCCCC1 [Cyclopentadecanone, cyclopentadecanone]",inhibition at 0.01 wt %,[4],35.6%
same,inhibition at 0.1 wt %,[5],73.3%
"O=CCCC=C1CC2CC1C1CCCC21 (stereo not drawn) [Dupical, 4-(tricyclo[5.2.1.0^2,6]decylidene-8)butenal]",Inhibition rate (%) Concentration 0.01%,[2],65.5%
same,Inhibition rate (%) Concentration 0.1%,[3],73.5%
"C=CCc1ccc(OC)cc1 [Estragole, estragole]",inhibition at 0.01 wt %,[4],94.6%
same,inhibition at 0.1 wt %,[5],99.4%
"CCOc1cc(C=O)ccc1O [Ethylvanillin, ethylvanillin]",inhibition at 0.01 wt %,[6],38.5%
same,inhibition at 0.1 wt %,[7],78.5%
"C=CCc1ccc(O)c(OC)c1 [Eugenol, eugenol]",inhibition at 0.01 wt %,[4],36.8%
same,inhibition at 0.1 wt %,[5],93.2%
"CC(C)=CCC/C(C)=C/CO [Geraniol, geraniol]",inhibition at 0.01 wt %,[4],56.8%
same,inhibition at 0.1 wt %,[5],79.8%
"CCC12CCC3C(C)(C)CCCC3(C)C1CCO2 (stereo not drawn) [Grisalva, 6,6,9α-trimethyl-3α-ethyldodecahydronaphtho[2,1-b]furan]",Inhibition rate (%) Concentration 0.01%,[2],50.4%
same,Inhibition rate (%) Concentration 0.1%,[3],77.3%
"CC(C=O)Cc1ccc2c(c1)OCO2 (stereo not drawn) [Helional, 2-methyl-3-(3,4-methylenedioxyphenyl)-propanal]",inhibition at 0.01 wt %,[4],32.4%
same,inhibition at 0.1 wt %,[5],76.4%
"CC(CC=O)CCCC(C)(C)O (stereo not drawn) [Hydroxycitronellal, hydroxycitronellal]",inhibition at 0.01 wt %,[4],24.2%
same,inhibition at 0.1 wt %,[5],85.3%
"CC(=O)C1(C)CC2=C(CCCC2(C)C)CC1C (stereo not drawn) [Iso E Super, 1,2,3,4,5,6,7,8-octahydro-2,3,8,8-tetramethyl-2-acetonaphthone]",Inhibition rate (%) Concentration 0.01%,[2],63.1%
same,Inhibition rate (%) Concentration 0.1%,[3],85.9%
"CC1=CC(C)C(C=O)CC1 (stereo not drawn) [Ligustral, dimethyltetrahydrobenzaldehyde]",Inhibition rate (%) Concentration 0.01%,[2],30.1%
same,Inhibition rate (%) Concentration 0.1%,[3],76.2%
"CC(C=O)Cc1ccc(C(C)(C)C)cc1 (stereo not drawn) [Lilial, 2-methyl-3-(4-tert-butylphenyl)-propanal]",inhibition at 0.01 wt %,[4],60.9%
same,inhibition at 0.1 wt %,[5],72.3%
"C=CC(C)(O)CCC=C(C)C (stereo not drawn) [Linalool, linalool]",inhibition at 0.01 wt %,[4],31.7%
same,inhibition at 0.1 wt %,[5],91%
"C=CC(C)(CCC=C(C)C)OC(C)=O (stereo not drawn) [Linalyl acetate, linalyl acetate]",inhibition at 0.01 wt %,[4],62.6%
same,inhibition at 0.1 wt %,[5],95.8%
"CC(C)(O)CCCC1=CCC(C=O)CC1 (stereo not drawn) [Lyral, 4-(4-hydroxy-4-methylpentyl)-3-cyclohexene-1-carboxyaldehyde]",inhibition at 0.01 wt %,[4],51.6%
same,inhibition at 0.1 wt %,[5],94.4%
"COC1(C)CCCCCCCCCCC1 [Madrox, 1-methyl-1-methoxycyclododecane]",inhibition at 0.01 wt %,[4],60.9%
same,inhibition at 0.1 wt %,[5],92.4%
"CCCCCCC#CC(=O)OC [Methyl-2-nonynoate, methyl-2-nonynoate]",inhibition at 0.01 wt %,[4],95.3%
same,inhibition at 0.1 wt %,[5],98.2%
"CC(C)=CCCC1=CCC(C=O)CC1 (stereo not drawn) [Myrac aldehyde, 4-(4-methyl-3-pentenyl)-3-cyclohexene-1-carboxyaldehyde]",Inhibition rate (%) Concentration 0.01%,[2],49.7%
same,Inhibition rate (%) Concentration 0.1%,[3],63.7%
"CC(C)=CCC/C(C)=C\CO [Nerol, nerol]",inhibition at 0.01 wt %,[4],44%
same,inhibition at 0.1 wt %,[5],85.7%
"C=C(C)[C@@H]1CCC2=CC(=O)C[C@@H](C)[C@]2(C)C1 [Nootkatone, nootkatone]",inhibition at 0.01 wt %,[4],80.8%
same,inhibition at 0.1 wt %,[5],95.2%
"COC1CCCCCCCCCCC1 [Palisandin, 1-methoxycyclododecane]",inhibition at 0.01 wt %,[4],53.3%
same,inhibition at 0.1 wt %,[5],85%
"O=CCc1ccccc1 [Phenylacetaldehyde, phenylacetaldehyde]",inhibition at 0.01 wt %,[4],31.9%
same,inhibition at 0.1 wt %,[5],72.2%
"CC(C)CCOCCc1ccccc1 [Phenylethyl isoamyl ether, phenylethyl isoamyl ether]",inhibition at 0.01 wt %,[4],60.8%
same,inhibition at 0.1 wt %,[5],88.8%

# From US9200269B2, “β-glucuronidase inhibitor” (priority 2007, dated 2015)
